Drawing on ChEMBL document CHEMBL1126962, “Antagonists of luteinising hormone-releasing hormone (LHRH). Progress towards non-peptide leads” (1993), this text covers ED50 and inhibition in vivo for five compounds.

Each structure is given as a SMILES string.

Format in all cases: functional
The subject of assay [1] is Rattus norvegicus. In words: Effective dose required to inhibit ovulation in normal cycling rats at 1 mg/kg.
Assay [2] is filed under the species Rattus norvegicus. The assay can be described thus: Effective dose required to inhibit ovulation in normal cycling rats.
For assay [3], the system named is Rattus norvegicus. The assay can be described thus: Effective dose required to inhibit ovulation in normal cycling rats at a dose of 2 mg/kg.

As usually defined, the inhibition in vivo is the percentage by which the read-out fell short of the control. A low value points to a response near the control. As for `CC(C)C[C@@H]1NC(=O)[C@@H](CCCN=C(N)N)NC(=O)[C@@H]2CCC(=O)NCCCC[C@H](NC1=O)C(=O)N1CCC[C@H]1C(=O)N(C)[C@H](C)C(=O)N[C@H](Cc1ccc(Cl)cc1)C(=O)N[C@H](Cc1ccc(Cl)cc1)C(=O)N[C@H](Cc1c[nH]c3ccccc13)C(=O)N[C@@H](CO)C(=O)N2`, in the assay with Rattus norvegicus [1], the ED50 is listed as 200 ug rat-1 and at 1 mg/kg the inhibition in vivo was 50%.

As for `CC(=O)N[C@H](Cc1ccc(Cl)cc1)C(=O)N[C@H](Cc1ccc(Cl)cc1)C(=O)N[C@H](Cc1c[nH]c2ccccc12)C(=O)N[C@@H](CO)C(=O)N[C@H]1CC(=O)NCCC[C@@H](C(=O)N2CCC[C@H]2C(=O)N[C@H](C)C(N)=O)NC(=O)[C@H](CC(C)C)NC(=O)[C@@H](CCCN=C(N)N)NC1=O`, in the assay filed under Rattus norvegicus [2], the ED50 was 540 ug rat-1. In the assay with Rattus norvegicus [3], `CC(C)C[C@@H]1NC(=O)[C@@H](CCCN=C(N)N)NC(=O)[C@@H]2CCC(=O)NCCCC[C@H](NC1=O)C(=O)N1CCC[C@H]1C(=O)N[C@H](C)C(=O)N[C@H](Cc1ccc(Cl)cc1)C(=O)N[C@H](Cc1ccc(Cl)cc1)C(=O)N[C@H](Cc1c[nH]c3ccccc13)C(=O)N[C@@H](CO)C(=O)N2` returned an inhibition in vivo at 2 mg/kg of 40%. Take `CC(=O)N[C@H](Cc1ccc(Cl)cc1)C(=O)N[C@H](Cc1ccc(Cl)cc1)C(=O)N[C@H](Cc1c[nH]c2ccccc12)C(=O)N[C@@H](CO)C(=O)N[C@H]1CC(=O)NCCCC[C@@H](C(=O)N2CCC[C@H]2C(=O)N[C@H](C)C(N)=O)NC(=O)[C@H](CC(C)C)NC(=O)[C@@H](CCCN=C(N)N)NC1=O`: the ED50 in the assay filed under Rattus norvegicus [2] is recorded as 180 ug rat-1. Still for that read-out and setting: with `CC(=O)N[C@H](Cc1ccc(Cl)cc1)C(=O)N[C@H](Cc1ccc(Cl)cc1)C(=O)N[C@H](Cc1c[nH]c2ccccc12)C(=O)N[C@@H](CO)C(=O)N[C@H]1CCC(=O)NCCCC[C@@H](C(=O)N2CCC[C@H]2C(=O)N[C@H](C)C(N)=O)NC(=O)[C@H](CC(C)C)NC(=O)[C@@H](CCCN=C(N)N)NC1=O` the figure was 90 ug rat-1.
